We go through 16 substances from patent US20030032065A1, “Ensemble-based strategy for the design of protein pharmaceuticals” (priority 2001, published 2003).

pKd: −log10 of the molar value. Ends that are not written are not given here.

By pKd is commonly meant −log10 of the Kd, conventionally taken in molar units.

Assay [1] deals with T1, streptavidin (Streptomyces avidinii, UniProt P22629). Particulars: peptide-streptavidin complex, experimentally observed binding constant; cited from earlier work.
Assay [2] concerns the target T1, streptavidin. Format: binding. To be noted: peptide-streptavidin complex, association constant.

T1 sequence (P22629 25-183): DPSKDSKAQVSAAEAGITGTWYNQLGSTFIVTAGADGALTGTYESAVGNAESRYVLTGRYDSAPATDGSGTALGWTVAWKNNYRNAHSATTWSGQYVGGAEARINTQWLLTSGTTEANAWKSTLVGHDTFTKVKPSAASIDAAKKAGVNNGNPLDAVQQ

For the substance AHPQFPAEK, in assay [1], the pKd was 3.87. The “Observed KA” value in assay [2] turned out to be 0.007 µM⁻¹. In the case of AECHPQFNCIEGRK, in assay [1], the pKd is 5.15. The “Observed KA” value in assay [2] was determined as 0.14 µM⁻¹. As to RCCHPQCGMVEEC, the negative logarithm of the Kd (pKd) in assay [1] was 5.89. Besides, in assay [2], the “Observed KA” value stood at 3.3 µM⁻¹. On to FSHPQNT, for which, in assay [2], the “Observed KA” value worked out at 0.008 µM⁻¹.

As to “cyclo-(AHPQFPAE)K (AHPQFPAEK; also: cyclic, ring closure not given here)”, in assay [1], the pKd is 6.89. Also, the “Observed KA” value in assay [2] worked out at 7.69 µM⁻¹. Turning to RCCHPQCGMAEEC, the pKd in assay [1] is 5.64. The “Observed KA” value in assay [2] stood at 0.45 µM⁻¹. “cyclo-(AHPQFGAE)K (AHPQFGAEK; also: cyclic, ring closure not given here)”: the negative-log Kd (pKd) in assay [1] was 4.72. Besides, the “Observed KA” value in assay [2] stood at 0.05 µM⁻¹. Regarding “cyclo-(AQYGHFAE)K (AQYGHFAEK; also: cyclic, ring closure not given here)”, the negative-log Kd (pKd) in assay [1] is less than 2.30. In assay [2], the “Observed KA” value amounted to 0.0002 µM⁻¹. With HDHPQNL, the pKd in assay [1] is 3.55. The “Observed KA” value in assay [2] was determined as 0.004 µM⁻¹. Consider AECHPQGPPCIEGRK, for which, in assay [1], the pKd is 6.64. In assay [2], the “Observed KA” value turned out to be 4.35 µM⁻¹.

With RCCHPQFEPCMGC, the pKd in assay [1] is 6.48. The “Observed KA” value in assay [2] was found to be 3.0 µM⁻¹.

Take AECHPQFCIEGRK: the pKd in assay [1] was 6.33. The “Observed KA” value in assay [2] was 2.13 µM⁻¹. Consider “cyclo-CHPQGPPC (also: cyclic, closure type not given here)”, for which the pKd in assay [1] was 6.17. For the same substance, the “Observed KA” value in assay [2] was determined as 1.49 µM⁻¹. With AHPQFGAEK, the pKd in assay [1] is 3.69. Also, in assay [2], the “Observed KA” value is 0.005 µM⁻¹. In the case of cyclo-CHPQFC, the negative logarithm of the Kd (pKd) in assay [1] is 6.57. Moreover, the “Observed KA” value in assay [2] came out at 3.70 µM⁻¹. As for AECHPQFPCIEGRK, the negative logarithm of the Kd (pKd) in assay [1] is 6.03. Besides, the “Observed KA” value in assay [2] came to 1.08 µM⁻¹.
